The values that follow come from patent US5965527A, “Cyclosporin compounds, their preparation and the pharmaceutical compositions which contain them” (Rhone-Poulenc Rorer, S.A., priority 1996, dated 1999).

This assay concerns retroviruses. The note with it: combined with AZT, ddl, Saquinavir and/or ribavirin.

On to “[(R)-2-(N,N-Dimethylamino)ethylthio-Sar]^3 -cyclosporin A [Example 2]”, for which the effect in combination entry was “particularly advantageous effect”.
